We go through 1 molecule from PMC8900822 (Acta Crystallographica. Section D, Structural Biology, 2022).

One assay addresses mtCA 02 (Mycobacterium tuberculosis, UniProt P9WPJ9). As to the kind of experiment: biochemical.
For a further assay, the target named is VhCAα (Vibrio cholerae, UniProt Q9KMP6). As to the kind of experiment: biochemical.
The target in a further assay is hCA I (Homo sapiens, UniProt P00915). The assay is described as follows: Stopped-flow CO2-hydration assay, hCA I.
Another assay deals with hCA II (Homo sapiens, UniProt P00918). As to the kind of experiment: biochemical.
The target in a further assay is BpsCAβ (Burkholderia pseudomallei, UniProt Q63Y17). The following applies: pH 8.3.
Chain of BpsCAβ (Q63Y17 1-256): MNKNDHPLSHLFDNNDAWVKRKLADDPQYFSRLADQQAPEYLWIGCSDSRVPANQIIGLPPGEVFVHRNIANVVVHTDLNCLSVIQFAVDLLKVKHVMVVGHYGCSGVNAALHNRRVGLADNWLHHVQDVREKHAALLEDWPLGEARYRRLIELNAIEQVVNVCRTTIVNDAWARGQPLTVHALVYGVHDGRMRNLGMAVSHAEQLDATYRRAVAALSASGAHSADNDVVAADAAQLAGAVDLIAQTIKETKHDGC
The next assay deals with VhCAβ (Vibrio cholerae, UniProt A0A086SLX8). The assay is described as follows: biochemical.
Chain of VhCAβ (A0A086SLX8 entry or part of it): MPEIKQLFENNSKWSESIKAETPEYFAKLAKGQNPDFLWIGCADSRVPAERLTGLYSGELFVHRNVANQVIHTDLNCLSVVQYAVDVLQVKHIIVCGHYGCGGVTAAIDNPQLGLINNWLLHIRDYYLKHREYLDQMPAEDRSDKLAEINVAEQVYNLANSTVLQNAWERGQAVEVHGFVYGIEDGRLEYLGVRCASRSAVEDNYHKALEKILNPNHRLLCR
The next assay deals with T1, TweCA (Thalassiosira weissflogii, UniProt Q5U9J1).
T1 sequence (Q5U9J1 1-281): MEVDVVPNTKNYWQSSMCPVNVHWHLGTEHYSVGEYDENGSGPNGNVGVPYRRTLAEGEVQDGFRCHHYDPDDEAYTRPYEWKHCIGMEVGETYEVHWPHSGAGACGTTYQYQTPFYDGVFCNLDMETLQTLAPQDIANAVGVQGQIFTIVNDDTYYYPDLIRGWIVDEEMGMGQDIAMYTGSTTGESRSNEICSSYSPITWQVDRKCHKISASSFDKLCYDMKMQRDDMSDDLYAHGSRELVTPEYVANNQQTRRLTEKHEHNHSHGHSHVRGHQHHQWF
As to the kind of experiment: biochemical.

In a further assay the target is BpsCAγ (Burkholderia pseudomallei, UniProt Q63SQ4). The following applies: pH 8.3.
Chain of BpsCAγ (Q63SQ4 1-174): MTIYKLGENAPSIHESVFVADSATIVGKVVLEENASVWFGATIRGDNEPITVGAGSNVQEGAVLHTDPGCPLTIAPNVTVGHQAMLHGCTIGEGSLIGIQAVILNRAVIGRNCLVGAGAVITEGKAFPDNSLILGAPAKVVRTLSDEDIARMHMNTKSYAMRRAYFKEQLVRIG
In a further assay the target is hCA XII (Homo sapiens, UniProt O43570). As to the kind of experiment: biochemical.
Chain of hCA XII (O43570 25-354): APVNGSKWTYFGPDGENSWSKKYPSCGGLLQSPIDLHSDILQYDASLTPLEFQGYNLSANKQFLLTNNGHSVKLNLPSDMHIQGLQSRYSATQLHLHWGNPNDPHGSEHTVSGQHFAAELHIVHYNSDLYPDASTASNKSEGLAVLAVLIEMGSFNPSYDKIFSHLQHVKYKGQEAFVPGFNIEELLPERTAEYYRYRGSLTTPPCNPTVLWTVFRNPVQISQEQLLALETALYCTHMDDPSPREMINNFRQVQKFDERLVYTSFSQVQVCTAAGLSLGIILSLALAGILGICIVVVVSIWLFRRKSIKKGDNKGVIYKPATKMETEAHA
The next assay relates to carbonic anhydrase (CA). Set-up: method as in Lankas & Peter, 1992. Conditions: in vivo study, ref Lankas & Peter, 1992; cited from earlier work.
For another assay, the target named is T2, SazCA (Sulfurihydrogenibium azorense, UniProt C1DTU5).
T2 sequence (C1DTU5 19-254): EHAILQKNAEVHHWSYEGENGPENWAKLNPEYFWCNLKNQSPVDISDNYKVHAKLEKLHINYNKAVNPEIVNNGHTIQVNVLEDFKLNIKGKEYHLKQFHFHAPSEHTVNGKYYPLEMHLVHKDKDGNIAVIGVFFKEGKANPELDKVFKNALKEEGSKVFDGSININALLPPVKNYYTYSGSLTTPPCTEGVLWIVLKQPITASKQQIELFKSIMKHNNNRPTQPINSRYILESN
As to the kind of experiment: biochemical.

In the next assay the target is T3, hCA IX (Homo sapiens, UniProt Q16790).
T3 construct: made in house
As to the kind of experiment: biochemical.

The next assay concerns the target T4, SmCA (Schistosoma mansoni, UniProt A0A4Y5UX87, S271R).
T4 sequence (A0A4Y5UX87 21-298 S271R): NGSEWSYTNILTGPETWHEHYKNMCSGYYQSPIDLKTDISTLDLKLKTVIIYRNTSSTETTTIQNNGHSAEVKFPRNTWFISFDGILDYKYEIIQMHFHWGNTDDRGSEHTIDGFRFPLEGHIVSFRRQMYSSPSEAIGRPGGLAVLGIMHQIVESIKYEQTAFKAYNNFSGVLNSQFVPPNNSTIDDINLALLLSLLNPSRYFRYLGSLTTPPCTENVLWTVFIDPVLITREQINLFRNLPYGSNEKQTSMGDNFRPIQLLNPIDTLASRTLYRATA
As to the kind of experiment: biochemical.

A further assay has as its target T5, mtCA 03 (Mycobacterium tuberculosis, UniProt P96878).
T5 sequence (P96878 550-764): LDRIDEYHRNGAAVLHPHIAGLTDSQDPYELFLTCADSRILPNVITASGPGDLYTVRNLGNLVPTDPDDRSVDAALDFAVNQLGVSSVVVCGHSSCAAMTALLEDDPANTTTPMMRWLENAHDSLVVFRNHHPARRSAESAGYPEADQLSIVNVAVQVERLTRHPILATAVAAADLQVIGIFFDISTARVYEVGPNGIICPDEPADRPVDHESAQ
The assay is described as follows: biochemical.

Chain of VhCAα (Q9KMP6 entry or part of it): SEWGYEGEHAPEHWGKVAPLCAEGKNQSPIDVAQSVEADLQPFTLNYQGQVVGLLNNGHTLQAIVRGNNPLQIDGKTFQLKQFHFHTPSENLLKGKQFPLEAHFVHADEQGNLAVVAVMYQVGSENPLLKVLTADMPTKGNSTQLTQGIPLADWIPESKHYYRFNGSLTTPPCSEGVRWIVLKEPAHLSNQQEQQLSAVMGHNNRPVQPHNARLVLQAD
Chain of mtCA 02 (P9WPJ9 whole entry, looked up): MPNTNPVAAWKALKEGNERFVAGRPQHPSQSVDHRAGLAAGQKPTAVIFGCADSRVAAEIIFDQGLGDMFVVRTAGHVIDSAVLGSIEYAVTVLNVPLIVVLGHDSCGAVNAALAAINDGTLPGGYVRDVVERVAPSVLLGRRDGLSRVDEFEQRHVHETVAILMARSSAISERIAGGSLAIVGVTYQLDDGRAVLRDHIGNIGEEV
Chain of hCA I (P00915 whole entry): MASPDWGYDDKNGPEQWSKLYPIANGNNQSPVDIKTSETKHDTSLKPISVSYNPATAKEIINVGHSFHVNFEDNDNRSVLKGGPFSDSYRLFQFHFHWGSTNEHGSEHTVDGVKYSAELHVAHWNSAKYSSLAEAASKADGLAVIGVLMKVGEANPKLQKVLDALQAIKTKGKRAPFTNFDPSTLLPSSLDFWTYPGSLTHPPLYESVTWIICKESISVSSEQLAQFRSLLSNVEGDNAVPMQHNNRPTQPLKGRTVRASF

`Nc1cc(C(Cl)=C(Cl)Cl)c(S(N)(=O)=O)cc1S(N)(=O)=O` [Clorsulon, 4-Amino-6-(1,2,2-trichlorovinyl)benzene-1,3-disulfonamide]: the Ki on mtCA 02 amounted to 2.9 nM; at VhCAα it was 292 nM; on hCA I it was 4520 nM; on hCA II, 59.1 nM; on BpsCAβ, 223 nM; at VhCAβ, 906 nM. The Ki worked out at 95.8 nM on TweCA; 2500 nM at BpsCAγ; 78 nM at hCA XII; 7.7 nM on SazCA; 138 nM at hCA IX; 225 nM at SmCA. The molecule also came in with a Ki at mtCA 03 of 828 nM. Besides, in the assay with carbonic anhydrase (CA), the “carbonic anhydrase (CA) inhibitory activity in rats” value was “weak”.
